Test [1] has as its target T1, Drosophila Golgi α-mannosidase II (dGMII) (Drosophila melanogaster, UniProt Q24451).
T1 sequence (Q24451 31-1108 limits assumed): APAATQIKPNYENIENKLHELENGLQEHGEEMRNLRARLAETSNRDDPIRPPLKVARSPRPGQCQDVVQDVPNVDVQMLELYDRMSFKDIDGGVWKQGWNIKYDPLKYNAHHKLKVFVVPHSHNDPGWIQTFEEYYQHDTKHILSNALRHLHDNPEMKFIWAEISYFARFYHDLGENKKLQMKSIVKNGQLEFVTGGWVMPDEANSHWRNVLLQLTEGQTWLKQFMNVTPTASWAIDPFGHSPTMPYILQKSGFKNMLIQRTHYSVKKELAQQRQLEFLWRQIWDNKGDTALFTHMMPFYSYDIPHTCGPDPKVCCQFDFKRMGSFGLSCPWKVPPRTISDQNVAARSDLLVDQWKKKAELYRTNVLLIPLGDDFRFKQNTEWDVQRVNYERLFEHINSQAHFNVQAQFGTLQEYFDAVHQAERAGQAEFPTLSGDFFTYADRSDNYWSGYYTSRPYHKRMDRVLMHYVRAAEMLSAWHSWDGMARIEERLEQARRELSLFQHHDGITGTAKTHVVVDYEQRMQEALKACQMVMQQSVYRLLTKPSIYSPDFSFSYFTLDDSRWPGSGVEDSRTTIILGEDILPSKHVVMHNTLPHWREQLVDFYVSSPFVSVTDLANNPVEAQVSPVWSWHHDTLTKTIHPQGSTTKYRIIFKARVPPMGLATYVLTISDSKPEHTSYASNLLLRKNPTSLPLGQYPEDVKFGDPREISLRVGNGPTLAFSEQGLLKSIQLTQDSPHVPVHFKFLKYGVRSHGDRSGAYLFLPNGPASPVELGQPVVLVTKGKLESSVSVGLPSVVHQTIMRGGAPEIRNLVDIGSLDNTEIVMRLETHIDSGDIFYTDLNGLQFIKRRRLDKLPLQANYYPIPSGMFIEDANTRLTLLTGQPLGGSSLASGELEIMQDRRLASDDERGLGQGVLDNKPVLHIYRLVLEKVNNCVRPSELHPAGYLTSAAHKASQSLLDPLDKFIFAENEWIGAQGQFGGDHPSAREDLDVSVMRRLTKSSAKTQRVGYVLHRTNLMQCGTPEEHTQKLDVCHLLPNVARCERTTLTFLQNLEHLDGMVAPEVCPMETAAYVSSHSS
The format is biochemical.

Test [2] relates to processing of influenza viral hemagglutinin in cultured MDCK cells. The following applies: cited from earlier work.

These results are taken from PMC3956299 (Chembiochem : a European journal of chemical biology, 2009).

Turning to `CO[C@@H]1[C@@H](N)[C@@H](O)[C@@H](O)[C@H]1O` [Compound 5, (1R, 2R, 3R, 4S, 5R)-4-Amino-5-methoxycyclopentane-1,2,3-triol], in test [1] (relative to 4 (4a)), the “fold enhancement of potency on changing hydroxyl of 4 to methoxy” value is listed as ~ 4 fold.
In the case of `CS[C@@H]1[C@@H](N)[C@@H](O)[C@@H](O)[C@H]1O` [Compound 1, Mannostatin A], the “effect on processing of influenza viral hemagglutinin” value in test [2] was “effectively blocked the processing of influenza viral hemagglutinin”.
`N[C@@H]1C[C@H](O)[C@H](O)[C@@H]1O` [Compound 3, (1S, 2S, 3R, 4R)-4-aminocyclopentane-1,2,3-triol]: in test [1], the “inhibitory activity in words” value is given as “very poor inhibitor”.
